This is an account of results in US8906911B2, “Chemokine receptor antagonists” (AbbVie Inc., priority 2012, dated 2014).

Assay [1] concerns the target T1, human CCR2B (Homo sapiens (Human), UniProt P41597). The experiment in a line: Inhibition of native agonist (human MCP-1)-induced intracellular calcium release, calcium flux assay in CHO cells expressing human CCR2B and Gα16. It is filed as cell-based. As to conditions: for IC50: read-out: hCCR2B IC50; for Kb: read-out: hCCR2B Kb. The text has this:
(§1) CHO cells expressing human CCR2B were generated as follows. cDNA for human CCR2B (cloned from human blood) was cloned into plasmid pcDNA3.1 (from Invitrogen). The resulting plasmids were separately transfected into CHO cells expressing human Gα16 (from Molecular Devices). […] CHO cells expressing rat CCR2 were generated as follows. cDNA for rat CCR2 (cloned from rat macrophage) was cloned into plasmid pEF-flag (from Chinese Academy of Science). The resulting plasmids were transfected into CHO cells expressing human Gα16 (from […]).
(§2) Inhibition of Native Agonist-Induced Intracellular Calcium Release in Cells Expressing hCCR2B or rCCR2
(§3) Calcium flux assays were performed in CHO cells expressing human CCR2B and Gα16 coupling protein, or rat CCR2 and Gα16 coupling protein. All compounds were dissolved in DMSO and assays run at a final DMSO concentration of 0.25% (v/v). Human MCP-1 was purchased from PeproTech and used at a final assay concentration of 2 nM, while rat MCP-1 was purchased from R&D and used at a final assay concentration of 4 nM. Assays with cells expressing human CCR2B were performed with human MCP-1, while assays with cells expressing rat CCR2 were performed with rat MCP-1.
(§4) Briefly, cells were cultured overnight in a microtiter plate at 8000 per well. The next day, the resultant adherent cells were incubated in assay buffer (20 mM HEPES, pH 7.4, 0.1% bovine serum albumin, and 2.5 mM probenocid in Hank's Buffered Saline Solution) containing Calcium 4 dye (Molecular Probes) at 37° C. for 60 minutes. Calcium flux assays were performed on a FLIPR^Tetra instrument (Molecular Devices) by adding compound to the cells followed by addition of native agonist and measuring the change in fluorescence as a function of time. Maximal and minimal values for fluorescence were determined using native agonist (2 nM MCP-1) for human or rat CCR2, or buffer addition, respectively. Fluorescence values were used to calculate the percent inhibition at a given compound concentration and the data fit to a sigmoidal curve in a semi-log plot to determine IC50 values. The Kb value is calculated as Kb=IC50/(1+[agonist]/EC50), where [agonist] is the concentration of agonist used and EC50 is the agonist potency determined in the previous experiments. Mean Kb values and IC50 of the compounds assayed are reported in Table 2 and Table 3 respectively.
On the technique in general: A change in cytosolic calcium serves as a functional read-out for many receptors and channels.

Assay [2] addresses rat CCR2 (Rattus norvegicus (Rat), UniProt O55193). The assay is described as follows: Inhibition of native agonist (rat MCP-1)-induced intracellular calcium release, calcium flux assay in CHO cells expressing rat CCR2 and Gα16. As to conditions: read-out: rCCR2 Kb. The class given is cell-based.
Text: as §1, §2, §3, §4

Assay [3] deals with T1, human CCR2B. The assay is described as follows: Inhibition of [125I]-labeled MCP-1 binding to hCCR2B (radioligand binding in CHO cells).
Text: as §1
Inhibition of [^125I]-Labeled MCP-1 Binding to hCCR2B
Radioligand binding assays were performed in CHO cells expressing human CCR2B and Gα16 coupling protein. All compounds were dissolved in DMSO and assays run at a final DMSO concentration of 0.5% (v/v). [^125I]-labeled human MCP-1 was purchased from PerkinElmer. Unlabelled human MCP-1 was purchased from PeproTech.
Compounds were serially diluted in DMSO before diluting into assay buffer (25 mM HEPES, pH 7.4, 5 mM MgCl2, 1 mM CaCl2, 0.5% BSA) with cryo preserved CHO cells expressing human CCR2B and the Gα16 coupling protein (30×10^3/well) and [^125I]-MCP-1 (50 pM). The reaction was incubated at room temperature for 90 minutes before transferring to GF/C filter membrane (PerkinElmer) pre-treated with 0.3% polyethyleneimine for 2 hours at 4° C. The filter membrane was washed six times with ice cold wash buffer (25 mM HEPES, pH 7.4, 5 mM MgCl2, 1 mM CaCl2, 500 mM NaCl, 0.01% (m/v) azide), dried, and sealed in a RLB sample bag (Agilent Technologies) before adding 5.0 mL Microscint 20 to each bag. Membrane was counted on Microbeta counter where background binding was determined by the presence of 100 nM MCP-1 and control total binding was determined by addition of DMSO in place of the test compound. The radioactivity values (cpm) were used to calculate the percent inhibition at a given compound concentration and the data fit to a sigmoidal curve in a semi-log plot to determine IC50 values. The corresponding Ki value is calculated as follows:
Ki=IC50/(1+[radioligand]/Kd), where [radioligand] is the concentration of the label and Kd (dissociation constant) is determined in saturation experiment with different concentrations of labeled MCP-1.

[4] abbreviates: mean Ki, [125I]-MCP-1 50 pM, CHO cells expressing human CCR2B and Gα16.

Where two headings read alike, the source gives them in different places.

Chain of rat CCR2 (O55193 whole entry): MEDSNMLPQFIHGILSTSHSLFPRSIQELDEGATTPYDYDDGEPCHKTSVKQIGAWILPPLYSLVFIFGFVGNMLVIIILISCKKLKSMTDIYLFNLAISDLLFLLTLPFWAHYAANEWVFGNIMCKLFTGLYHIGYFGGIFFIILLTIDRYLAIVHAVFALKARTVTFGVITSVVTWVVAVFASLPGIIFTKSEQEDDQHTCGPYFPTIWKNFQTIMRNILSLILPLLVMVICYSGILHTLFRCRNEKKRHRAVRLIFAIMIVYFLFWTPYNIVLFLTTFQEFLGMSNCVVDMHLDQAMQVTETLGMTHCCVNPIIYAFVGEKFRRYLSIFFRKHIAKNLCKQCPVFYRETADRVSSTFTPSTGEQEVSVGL
T1 sequence (P41597 other isoform, or with tags, fused parts or gaps): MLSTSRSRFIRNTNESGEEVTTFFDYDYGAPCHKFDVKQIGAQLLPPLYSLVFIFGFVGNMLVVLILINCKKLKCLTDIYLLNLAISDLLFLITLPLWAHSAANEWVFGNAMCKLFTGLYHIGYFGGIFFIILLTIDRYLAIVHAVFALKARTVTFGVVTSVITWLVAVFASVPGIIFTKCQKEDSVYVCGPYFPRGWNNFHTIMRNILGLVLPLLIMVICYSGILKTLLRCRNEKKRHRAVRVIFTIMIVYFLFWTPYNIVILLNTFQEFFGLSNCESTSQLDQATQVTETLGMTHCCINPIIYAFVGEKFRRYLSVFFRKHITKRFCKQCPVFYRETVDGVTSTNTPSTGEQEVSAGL

As usually defined, the IC50 is the point on the concentration scale where inhibition reaches its midpoint. As a reminder, the Ki is a measure of affinity in units of concentration, obtained from inhibition or displacement. As to `CO[C@@H]1COCC[C@@H]1N[C@@H]1C[C@H]2CCC[C@@]2(C(=O)N2C[C@@H]3C[C@H]2CN3c2ccc(C#N)c(C(F)(F)F)c2)C1` (racemic) [Example 39, 1,5-anhydro-3-{[(2R,3aR,6aR)-3a-({(1S,4S)-5-[4-cyano-3-(trifluoromethyl)phenyl]-2,5-diazabicyclo[2.2.1]hept-2-yl}carbonyl)octahydropentalen-2-yl]amino}-2,3-dideoxy-4-O-methyl-D-erythro-pentitol], the IC50 in assay [1] (calcium flux, human MCP-1 2 nM) worked out at 55.3 nM. Moreover, the Kb in assay [1] came out at 14 nM; in assay [2] it was 3 nM. The compound also registered a Ki in assay [3] of 66 nM.
With `CO[C@@H]1COCC[C@H]1N[C@@H]1C[C@H]2CCC[C@@]2(C(=O)N2C[C@@H]3C[C@H]2CN3c2cc(C(F)(F)F)ccn2)C1` [Example 1, 1,5-anhydro-2,3-dideoxy-4-O-methyl-3-{[(2R,3aR,6aR)-3a-({(1S,4S)-5-[4-(trifluoromethyl)pyridin-2-yl]-2,5-diazabicyclo[2.2.1]hept-2-yl}carbonyl)octahydropentalen-2-yl]amino}-D-threo-pentitol], the IC50 in assay [1] (calcium flux, human MCP-1 2 nM) is 54.9 nM. Besides, the Kb in assay [1] is 14 nM; in assay [2] it was 23 nM. In assay [3] (setting [4]), this compound had a Ki of 32 nM.
On to `CO[C@@H]1COCC[C@@H]1N[C@@H]1C[C@H]2CCC[C@@]2(C(=O)N2C[C@@H]3C[C@H]2CN3c2cc(C(F)(F)F)ccn2)C1` [Example 2, 1,5-anhydro-2,3-dideoxy-4-O-methyl-3-{[(2R,3aR,6aR)-3a-({(1S,4S)-5-[4-(trifluoromethyl)pyridin-2-yl]-2,5-diazabicyclo[2.2.1]hept-2-yl}carbonyl)octahydropentalen-2-yl]amino}-D-erythro-pentitol], for which the IC50 in assay [1] (calcium flux, human MCP-1 2 nM) stood at 76.7 nM. For the same compound, the Kb in assay [1] is 19 nM; in assay [2] it was 12 nM. In assay [3] (setting [4]), the Ki was determined as 60 nM.
Consider `CO[C@@H]1COCC[C@@H]1N(C)[C@@H]1C[C@H]2CCC[C@@]2(C(=O)N2C[C@@H]3C[C@H]2CN3c2cc(C(F)(F)F)ccn2)C1` [Example 7, 1,5-anhydro-2,3-dideoxy-4-O-methyl-3-{methyl[(2R,3aR,6aR)-3a-({(1S,4S)-5-[4-(trifluoromethyl)pyridin-2-yl]-2,5-diazabicyclo[2.2.1]hept-2-yl}carbonyl)octahydropentalen-2-yl]amino}-D-erythro-pentitol], for which, in assay [1] (calcium flux, human MCP-1 2 nM), the IC50 worked out at 65.7 nM. Further, the Kb was found to be 16 nM in assay [1] and 10 nM in assay [2]. The same compound displayed a Ki in assay [3] (setting [4]) of 30 nM.
For the compound `CO[C@@H]1COCC[C@@H]1N[C@@H]1C[C@H]2CCC[C@@]2(C(=O)N2C[C@@H]3C[C@H]2CN3c2ccc(F)c(C(F)(F)F)c2)C1` [Example 15, 1,5-anhydro-2,3-dideoxy-3-{[(2R,3aR,6aR)-3a-({(1S,4S)-5-[4-fluoro-3-(trifluoromethyl)phenyl]-2,5-diazabicyclo[2.2.1]hept-2-yl}carbonyl)octahydropentalen-2-yl]amino}-4-O-methyl-D-erythro-pentitol], in assay [1], the IC50 was found to be 34.7 nM and the Kb worked out at 9 nM. For the same compound, the Kb in assay [2] amounted to 3 nM. In assay [3] (setting [4]), the Ki is 29 nM.
For `CO[C@@H]1COCC[C@@H]1N[C@@H]1C[C@H]2CCC[C@@]2(C(=O)N2C[C@@H]3C[C@H]2CN3c2cc(C(F)(F)F)ccc2C)C1` [Example 16, 1,5-anhydro-2,3-dideoxy-4-O-methyl-3-{[(2R,3aR,6aR)-3a-({(1S,4S)-5-[2-methyl-5-(trifluoromethyl)phenyl]-2,5-diazabicyclo[2.2.1]hept-2-yl}carbonyl)octahydropentalen-2-yl]amino}-D-erythro-pentitol] the same measures were 106 nM, 26 nM, 7 nM and 199 nM.
On to `CO[C@@H]1COCC[C@@H]1N[C@@H]1C[C@H]2CCC[C@@]2(C(=O)N2C[C@@H]3C[C@H]2CN3c2cccc(C(F)(F)F)c2)C1` [Example 18, 1,5-anhydro-2,3-dideoxy-4-O-methyl-3-{[(2R,3aR,6aR)-3a-({(1S,4S)-5-[3-(trifluoromethyl)phenyl]-2,5-diazabicyclo[2.2.1]hept-2-yl}carbonyl)octahydropentalen-2-yl]amino}-D-erythro-pentitol], for which the IC50 in assay [1] (calcium flux, human MCP-1 2 nM) turned out to be 76.4 nM. Moreover, the values for the Kb in assay [1] and in assay [2] were 19 nM and 6 nM, respectively. Besides, in assay [3] (setting [4]), the Ki is 207 nM.
For `CO[C@@H]1COCC[C@@H]1N[C@@H]1C[C@H]2CCC[C@@]2(C(=O)N2C[C@@H]3C[C@H]2CN3c2ccc(C)c(C(F)(F)F)c2)C1` [Example 19, 1,5-anhydro-2,3-dideoxy-4-O-methyl-3-{[(2R,3aR,6aR)-3a-({(1S,4S)-5-[4-methyl-3-(trifluoromethyl)phenyl]-2,5-diazabicyclo[2.2.1]hept-2-yl}carbonyl)octahydropentalen-2-yl]amino}-D-erythro-pentitol] the same measures were 233 nM, 57 nM, 12 nM and 306 nM.
Taken in the same sequence, the figures for `CO[C@@H]1COCC[C@@H]1N[C@@H]1C[C@H]2CCC[C@@]2(C(=O)N2C[C@@H]3C[C@H]2CN3c2ccc(F)c(Cl)c2)C1` [Example 20, 1,5-anhydro-3-{[(2R,3aR,6aR)-3a-{[(1S,4S)-5-(3-chloro-4-fluorophenyl)-2,5-diazabicyclo[2.2.1]hept-2-yl]carbonyl}octahydropentalen-2-yl]amino}-2,3-dideoxy-4-O-methyl-D-erythro-pentitol] were 182 nM, 45 nM, 18 nM and 112 nM.
Taken in the same sequence, the figures for `CO[C@@H]1COCC[C@@H]1N[C@@H]1C[C@H]2CCC[C@@]2(C(=O)N2C[C@@H]3C[C@H]2CN3c2cccc(C(F)(F)F)n2)C1` [Example 22, 1,5-anhydro-2,3-dideoxy-4-O-methyl-3-{[(2R,3aR,6aR)-3a-({(1S,4S)-5-[6-(trifluoromethyl)pyridin-2-yl]-2,5-diazabicyclo[2.2.1]hept-2-yl}carbonyl)octahydropentalen-2-yl]amino}-D-erythro-pentitol] were 153 nM, 38 nM, 12 nM and 120 nM.
Regarding `CO[C@@H]1COCC[C@@H]1N[C@@H]1C[C@H]2CCC[C@@]2(C(=O)N2C[C@@H]3C[C@H]2CN3c2cc(F)cc(C(F)(F)F)c2)C1` [Example 25, 1,5-anhydro-2,3-dideoxy-3-{[(2R,3aR,6aR)-3a-({(1S,4S)-5-[3-fluoro-5-(trifluoromethyl)phenyl]-2,5-diazabicyclo[2.2.1]hept-2-yl}carbonyl)octahydropentalen-2-yl]amino}-4-O-methyl-D-erythro-pentitol], the IC50 in assay [1] (calcium flux, human MCP-1 2 nM) stood at 92.2 nM. The Kb turned out to be 23 nM in assay [1] and 5 nM in assay [2]. The compound also came in with a Ki in assay [3] (setting [4]) of 271 nM.
Taken in the same sequence, the figures for `CO[C@@H]1COCC[C@@H]1N[C@@H]1C[C@H]2CCC[C@@]2(C(=O)N2C[C@@H]3C[C@H]2CN3c2ccnc(C(F)(F)F)c2)C1` [Example 26, 1,5-anhydro-2,3-dideoxy-4-O-methyl-3-{[(2R,3aR,6aR)-3a-({(1S,4S)-5-[2-(trifluoromethyl)pyridin-4-yl]-2,5-diazabicyclo[2.2.1]hept-2-yl}carbonyl)octahydropentalen-2-yl]amino}-D-erythro-pentitol] were 598 nM, 147 nM, 22 nM and 792 nM.
